From the NIST ThermoML archive (doi:10.1021/je060333x)
± gives the expanded uncertainty stated by the source.

Experiment: molar enthalpy of transition or fusion
Details: 352 K; Crystal; DSC

With `OCCCCCCCCCCCCO` [1,12-dihydroxydodecane] the “molar enthalpy of transition or fusion” value was 12.2 ± 0.454 kcal/mol.
